Laboratory results published in US10526295B2, “Nuclear transport modulators and uses thereof” (Karyopharm Therapeutics Inc., priority 2015, dated 2020).

Columns and labels:
Type in all cases: cell-based
3T3 cells = assay: MTT cell proliferation assay (3T3); conditions: Mus musculus, NIH3T3; 3T3 fibroblast cells; approximately 64-72 hours incubation; 1 nM to 30 μM
Experimental: (§1) The MTT cell proliferation assay was used to study the cytotoxic properties of the compounds. The assay was performed according to the method described by Roche Molecular Biochemicals, with minor modifications. The assay is based on the cleavage of the tetrazolium salt, MTT, in the presence of an electron-coupling reagent. The water-insoluble formazan salt produced must be solubilized in an additional step. Cells grown in a 96-well tissue culture plate were incubated with the MTT solution for approximately 4 hours. After this incubation period, a water-insoluble formazan dye formed. After solubilization, the formazan dye was quantitated using a scanning multi-well spectrophotometer (ELISA reader). […] The cells were seeded at 5,000-10,000 cells in each well of 96-well plate in 100 μL of fresh culture medium and were allowed to attach overnight. The stock solutions of the compounds were diluted in 100 μL cell culture medium to obtain eight concentrations of each test compound, ranging from 1 nM to 30 μM. […] All optical densities were measured at 490 nm using a Vmax Kinetic Microplate Reader (Molecular Devices). In most cases, the assay was performed in duplicate and the results were presented as a mean percent inhibition to the negative control±SE. The following formula was used to calculate the percent of inhibition: Inhibition (%)=(1−(ODo/OD))×100.
(§2) The compounds were tested against Z138, MM1S and 3T3 cells. The Z138 cell line is a mature B-cell acute lymphoblastic leukemia cell line derived from a patient with chronic lumphocytic leukemia. The MM1S cell line was established from the peripheral blood of a human multiple myeloma patient. 3T3 cells are standard fibroblast cells; they were originally isolated from Swiss mouse embryo tissue.

MM1S cells = assay: MTT cell proliferation assay (MM1S); conditions: Homo sapiens, MM1.S; MM1S multiple myeloma cells; approximately 64-72 hours incubation; 1 nM to 30 μM
Experimental: as §1, §2

Z138 cells = assay: MTT cell proliferation assay (Z138); conditions: Homo sapiens, Z-138, approximately 64-72 hours incubation, 1 nM to 30 μM
Experimental: as §1, §2

Row | Structure (SMILES) | IC50 (MM1S cells) | IC50 (3T3 cells) | IC50 (Z138 cells)
1 | NC(=O)/C(=C/n1cnc(-c2cc(C(F)(F)F)cc(C(F)(F)F)c2)n1)c1cccc(S(=O)(=O)N2CCC(F)CC2)c1 [Compound 120, (E)-3-(3-(3,5-bis(trifluoromethyl)phenyl)-1H-1,2,4-triazol-1-yl)-2-(3-(4-fluoropiperidin-1-ylsulfonyl)phenyl)acrylamide] | 100 to 5000 nM | > 30000 nM | 100 to 5000 nM
2 | NC(=O)/C(=C/n1cnc(-c2cc(C(F)(F)F)cc(C(F)(F)F)c2)n1)c1ccc(S(=O)(=O)N2CCC2)cc1 [Compound 107, (E)-2-(4-(azetidin-1-ylsulfonyl)phenyl)-3-(3-(3,5-bis(trifluoromethyl)phenyl)-1H-1,2,4-triazol-1-yl)acrylamide] | < 100 nM | 100 to 5000 nM | < 100 nM
3 | NC(=O)/C(=C/n1cnc(-c2cc(C(F)(F)F)cc(C(F)(F)F)c2)n1)c1cccc(S(=O)(=O)N2CCC(C(F)(F)F)CC2)c1 [Compound 126, (E)-3-(3-(3,5-bis(trifluoromethyl)phenyl)-1H-1,2,4-triazol-1-yl)-2-(3-(4-(trifluoromethyl)piperidin-1-ylsulfonyl)phenyl)acrylamide] | 5000 to 30000 nM | > 30000 nM | 100 to 5000 nM
4 | CC1(C)CN(S(=O)(=O)c2ccc(/C(=C\n3cnc(-c4cc(C(F)(F)F)cc(C(F)(F)F)c4)n3)C(N)=O)cc2)CCO1 [Compound 116, (E)-3-(3-(3,5-bis(trifluoromethyl)phenyl)-1H-1,2,4-triazol-1-yl)-2-(4-(2,2-dimethylmorpholinosulfonyl)phenyl)acrylamide] | 100 to 5000 nM | 100 to 5000 nM | 100 to 5000 nM
5 | NC(=O)/C(=C/n1cnc(-c2cc(C(F)(F)F)cc(C(F)(F)F)c2)n1)c1ccc(S(=O)(=O)N2CCC(F)CC2)cc1 [Compound 114, (E)-3-(3-(3,5-bis(trifluoromethyl)phenyl)-1H-1,2,4-triazol-1-yl)-2-(4-(4-fluoropiperidin-1-ylsulfonyl)phenyl)acrylamide] | < 100 nM | < 100 nM | < 100 nM
6 | NC(=O)/C(=C/n1cnc(-c2cc(C(F)(F)F)cc(C(F)(F)F)c2)n1)c1ccc(S(=O)(=O)N2CCC(C(F)(F)F)CC2)cc1 [Compound 106, (E)-3-(3-(3,5-bis(trifluoromethyl)phenyl)-1H-1,2,4-triazol-1-yl)-2-(4-(4-(trifluoromethyl)piperidin-1-ylsulfonyl)phenyl)acrylamide] | 100 to 5000 nM | > 30000 nM | 100 to 5000 nM
7 | NC(=O)/C(=C/n1cnc(-c2cc(C(F)(F)F)cc(C(F)(F)F)c2)n1)c1ccc(S(=O)(=O)C2CC2)cc1 [Compound 101, (E)-3-(3-(3,5-bis(trifluoromethyl)phenyl)-1H-1,2,4-triazol-1-yl)-2-(4-(cyclopropylsulfonyl)phenyl)acrylamide] | < 100 nM | < 100 nM | < 100 nM
8 | CN1CCN(S(=O)(=O)c2cccc(/C(=C\n3cnc(-c4cc(C(F)(F)F)cc(C(F)(F)F)c4)n3)C(N)=O)c2)CC1 [Compound 124, (E)-3-(3-(3,5-bis(trifluoromethyl)phenyl)-1H-1,2,4-triazol-1-yl)-2-(3-(4-methylpiperazin-1-ylsulfonyl)phenyl)acrylamide] | 100 to 5000 nM | > 30000 nM | 100 to 5000 nM
9 | CN1CCN(S(=O)(=O)c2ccc(/C(=C\n3cnc(-c4cc(C(F)(F)F)cc(C(F)(F)F)c4)n3)C(N)=O)cc2)CC1 [Compound 115, (E)-3-(3-(3,5-bis(trifluoromethyl)phenyl)-1H-1,2,4-triazol-1-yl)-2-(4-(4-methylpiperazin-1-ylsulfonyl)phenyl)acrylamide] | 100 to 5000 nM | 100 to 5000 nM | 100 to 5000 nM
10 | CN(C)S(=O)(=O)c1ccc(/C(=C\n2cnc(-c3cc(C(F)(F)F)cc(C(F)(F)F)c3)n2)C(N)=O)cc1 [Compound 104, (E)-3-(3-(3,5-bis(trifluoromethyl)phenyl)-1H-1,2,4-triazol-1-yl)-2-(4-(N,N-dimethylsulfamoyl)phenyl)acrylamide] | 100 to 5000 nM | > 30000 nM | 100 to 5000 nM
11 | NC(=O)/C(=C/n1cnc(-c2cc(C(F)(F)F)cc(C(F)(F)F)c2)n1)c1cccc(S(=O)(=O)N2CCOCC2)c1 [Compound 119, (E)-3-(3-(3,5-bis(trifluoromethyl)phenyl)-1H-1,2,4-triazol-1-yl)-2-(3-(morpholinosulfonyl)phenyl)acrylamide] | 100 to 5000 nM | > 30000 nM | 100 to 5000 nM
12 | NC(=O)/C(=C/n1cnc(-c2cc(C(F)(F)F)cc(C(F)(F)F)c2)n1)c1ccc(S(=O)(=O)N2CC(F)C2)cc1 [Compound 110, (E)-3-(3-(3,5-bis(trifluoromethyl)phenyl)-1H-1,2,4-triazol-1-yl)-2-(4-(3-fluoroazetidin-1-ylsulfonyl)phenyl)acrylamide] | < 100 nM | 100 to 5000 nM | < 100 nM
13 | NC(=O)/C(=C/n1cnc(-c2cc(C(F)(F)F)cc(C(F)(F)F)c2)n1)c1ccc(S(=O)(=O)N2CCOCC2)cc1 [Compound 108, (E)-3-(3-(3,5-bis(trifluoromethyl)phenyl)-1H-1,2,4-triazol-1-yl)-2-(4-(morpholinosulfonyl)phenyl)acrylamide] | < 100 nM | 100 to 5000 nM | 100 to 5000 nM
14 | NC(=O)/C(=C/n1cnc(-c2cc(C(F)(F)F)cc(C(F)(F)F)c2)n1)c1ccc(S(=O)(=O)N2CC[C@@H](F)C2)cc1 [Compound 117, (R,E)-3-(3-(3,5-bis(trifluoromethyl)phenyl)-1H-1,2,4-triazol-1-yl)-2-(4-(3-fluoropyrrolidin-1-ylsulfonyl)phenyl)acrylamide] | < 100 nM | 100 to 5000 nM | < 100 nM
15 | NC(=O)/C(=C/n1cnc(-c2cc(C(F)(F)F)cc(C(F)(F)F)c2)n1)c1cccc(S(=O)(=O)N2CC(F)C2)c1 [Compound 123, (E)-3-(3-(3,5-bis(trifluoromethyl)phenyl)-1H-1,2,4-triazol-1-yl)-2-(3-(3-fluoroazetidin-1-ylsulfonyl)phenyl)acrylamide] | 100 to 5000 nM | > 30000 nM | 100 to 5000 nM

Second part, led by results:

Row | IC50 (MM1S cells) | Structure (SMILES) | IC50 (3T3 cells) | IC50 (Z138 cells)
16 | > 30000 nM | NC(=O)/C(=C/n1cnc(-c2cc(C(F)(F)F)cc(C(F)(F)F)c2)n1)c1cccc(S(=O)(=O)N2CCC(F)(F)C2)c1 [Compound 128, (E)-3-(3-(3,5-bis(trifluoromethyl)phenyl)-1H-1,2,4-triazol-1-yl)-2-(3-(3,3-difluoropyrrolidin-1-ylsulfonyl)phenyl)acrylamide] | 100 to 5000 nM | 100 to 5000 nM
17 | < 100 nM | NC(=O)/C(=C/n1cnc(-c2cc(C(F)(F)F)cc(C(F)(F)F)c2)n1)c1ccc(S(=O)(=O)N2CCCC2)cc1 [Compound 112, (E)-3-(3-(3,5-bis(trifluoromethyl)phenyl)-1H-1,2,4-triazol-1-yl)-2-(4-(pyrrolidin-1-ylsulfonyl)phenyl)acrylamide] | 100 to 5000 nM | < 100 nM
18 | 100 to 5000 nM | CS(=O)(=O)Nc1cccc(/C(=C\n2cnc(-c3cc(C(F)(F)F)cc(C(F)(F)F)c3)n2)C(N)=O)c1 [Compound 102, (E)-3-(3-(3,5-bis(trifluoromethyl)phenyl)-1H-1,2,4-triazol-1-yl)-2-(3-(methylsulfonamido)phenyl)acrylamide] | > 30000 nM | 100 to 5000 nM
19 | < 100 nM | NC(=O)/C(=C/n1cnc(-c2cc(C(F)(F)F)cc(C(F)(F)F)c2)n1)c1ccc(S(=O)(=O)NC2CC2)cc1 [Compound 100, (E)-3-(3-(3,5-bis(trifluoromethyl)phenyl)-1H-1,2,4-triazol-1-yl)-2-(4-(N-cyclopropylsulfamoyl)phenyl)acrylamide] | > 30000 nM | < 100 nM
20 | 100 to 5000 nM | NC(=O)/C(=C/n1cnc(-c2cc(C(F)(F)F)cc(C(F)(F)F)c2)n1)c1cccc(S(=O)(=O)N2CC(F)(F)C2)c1 [Compound 121, (E)-3-(3-(3,5-bis(trifluoromethyl)phenyl)-1H-1,2,4-triazol-1-yl)-2-(3-(3,3-difluoroazetidin-1-ylsulfonyl)phenyl)acrylamide] | > 30000 nM | 100 to 5000 nM
21 | < 100 nM | NC(=O)/C(=C/n1cnc(-c2cc(C(F)(F)F)cc(C(F)(F)F)c2)n1)c1ccc(S(=O)(=O)N2CCC(F)(F)C2)cc1 [Compound 113, (E)-3-(3-(3,5-bis(trifluoromethyl)phenyl)-1H-1,2,4-triazol-1-yl)-2-(4-(3,3-difluoropyrrolidin-1-ylsulfonyl)phenyl)acrylamide] | < 100 nM | < 100 nM
22 | 100 to 5000 nM | NC(=O)/C(=C/n1cnc(-c2cc(C(F)(F)F)cc(C(F)(F)F)c2)n1)c1cccc(S(=O)(=O)N2CCC2)c1 [Compound 127, (E)-2-(3-(azetidin-1-ylsulfonyl)phenyl)-3-(3-(3,5-bis(trifluoromethyl)phenyl)-1H-1,2,4-triazol-1-yl)acrylamide] | 100 to 5000 nM | 100 to 5000 nM
